Test results reported in patent US9018135B2, “Pesticidal compositions” (Syngenta Participations AG, priority 2010, dated 2015).
Where two headings read alike, the source gives them in different places.

Assays:
[1] = test system: Nilaparvata lugens (brown plant hopper, BPH); assay: Activity against Nilaparvata lugens (brown plant hopper, BPH) on sprayed rice plants, % mortality (Abbott); format: in vivo; settings: 168 h
Description: Eight replicates (pots with rice plants) were sprayed with respective test solutions. Test solutions contained the formulated test compound and the PGR Moddus® at different ratios. 4 pots were infested with plant hopper nymphs right after application. 7d after application BPH mortality and phytotoxicity were evaluated.

[2] = test system: Rhopalosiphum padi (cereal aphid); assay: Activity against Rhopalosiphum padi (cereal aphid) on sprayed wheat plants, % mortality (Abbott)
Excerpt: Activity Against Rhopalosiphum padi (Cereal Aphid) and Crop Safety
The experiment was divided into two parts, one half of the plants was used for the aphid bioassay the other half was not infested with aphids and kept for plant growth evaluation. One replicate consisted of 4 wheat plants per pot. 5 replicates were infested with a mixed population of cereal aphids 6 days after seeding. 9 days after seeding all wheat plants (10 replicates) were sprayed with respective test solutions. Test solutions contained the formulated test compound (25 ppm), the adjuvant Mero (0.1% v/v), and the plant growth regulator (PGR) CCC (chlormequat-chloride, Cyclocel®) or trinexapac ethyl (Moddus®). 6 and 17d after application aphid mortality and phytotoxicity were evaluated. Efficacy was calculated with the aid of Abbott's formula. Assessment on phytotoxicity was done by counting the number of leaves bent down due to necrosis per pot. Additionally the average plant height per replicate was measured.

| SMILES | melting point | further results |
| --- | --- | --- |
| COCCON1C(=O)C(c2c(C)cc(Cl)cc2C)=C(O)C12CCN(OC)CC2 | 161 to 164 °C |  |
| COCCON1C(=O)C(c2cc(Br)c(C)cc2C)=C(O)C12CCN(OC)CC2 | 63 to 64 °C |  |
| CCN1C(=O)C(c2c(C)cc(C)cc2C)=C(O)C12CCN(OC)CC2 | 218 to 221 °C |  |
| CCOC(=O)OC1=C(c2cc(C)c(C)cc2Br)C(=O)N(C)C12CCN(OC)CC2 | 158 to 159 °C |  |
| CON1CCC2(CC1)C(O)=C(c1cc(C)c(C)cc1C)C(=O)N2C | 183 to 186 °C |  |
| CCOC(=O)OC1=C(c2c(C)cc(Cl)cc2C)C(=O)N(OC)C12CCN(OC)CC2 | 122 to 125 °C |  |
| CON1CCC2(CC1)C(O)=C(c1cc(C)ccc1C)C(=O)N2C | 121 to 123 °C |  |
| CON1CCC2(CC1)C(O)=C(c1cc(Br)c(C)cc1C)C(=O)N2OC | 86 to 87 °C |  |
| CCOC(=O)OC1=C(c2cc(C)c(C)cc2Cl)C(=O)N(C)C12CCN(OC)CC2 | 149 to 150 °C |  |
| CON1CCC2(CC1)C(O)=C(c1c(C)cc(C)cc1C)C(=O)N2OCC1CCCCC1 | 169 to 172 °C |  |
| CON1CCC2(CC1)C(O)=C(c1c(C)cc(C)cc1C)C(=O)N2CC1CC1 | 223 to 225 °C |  |
| COCON1C(=O)C(c2cc(Br)c(F)cc2C)=C(O)C12CCN(OC)CC2 | 64 to 67 °C |  |
| CCOC(=O)OC1=C(c2c(F)ccc(C)c2Cl)C(=O)N(OCOC)C12CCN(OC)CC2 | 116 to 119 °C |  |
| CCOC(=O)OC1=C(c2cc(C)ccc2C)C(=O)N(C)C12CCN(OC)CC2 | 96 to 110 °C |  |
| COCCON1C(=O)C(c2cc(Br)c(F)cc2C)=C(O)C12CCN(OC)CC2 | 71 to 74 °C |  |
| CON1CCC2(CC1)C(O)=C(c1cc(C)c(C)cc1Br)C(=O)N2C | 191 to 193 °C |  |
| CON1CCC2(CC1)C(O)=C(c1cc(C)c(C)cc1Cl)C(=O)N2C | 191 to 192 °C |  |
| COCON1C(=O)C(c2c(C)cc(-c3ccc(Cl)cc3)cc2C)=C(O)C12CCN(OC)CC2 | 128 °C (dec.) |  |
| COCON1C(=O)C(c2cc(C)ccc2C)=C(OC(=O)CC(C)(C)C)C12CCN(OC)CC2 | 93 to 95 °C |  |
| COCON1C(=O)C(c2c(F)ccc(C)c2Cl)=C(O)C12CCN(OC)CC2 | 155 to 158 °C |  |
| CCOC(=O)OC1=C(c2c(C)cc(Cl)cc2C)C(=O)N(C)C12CCN(OC)CC2 [P1.29] |  | mortality at 12.5 ppm ([1]; read-out: Efficacy (% mortality) against brown plant hopper (Nilaparvata lugens), 12.5 ppm AI with Moddus, ratio AI:PGR 0.9:1, 7 d after application): 80%; mortality at 12.5 ppm ([1]; read-out: Efficacy (% mortality) against brown plant hopper (Nilaparvata lugens), 12.5 ppm AI, no PGR, 7 d after application): 98%; mortality at 25 ppm ([1]; read-out: Efficacy (% mortality) against brown plant hopper (Nilaparvata lugens), 25 ppm AI with Moddus, ratio AI:PGR 1.9:1, 7 d after application): 97%; mortality at 25 ppm ([1]; read-out: Efficacy (% mortality) against brown plant hopper (Nilaparvata lugens), 25 ppm AI, no PGR, 7 d after application): 98%; mortality at 50 ppm ([1]; read-out: Efficacy (% mortality) against brown plant hopper (Nilaparvata lugens), 50 ppm AI with Moddus, ratio AI:PGR 1.25:1, 7 d after application): 98%; mortality at 50 ppm ([1]; read-out: Efficacy (% mortality) against brown plant hopper (Nilaparvata lugens), 50 ppm AI, no PGR, 7 d after application): 100%; mortality at 100 ppm ([1]; read-out: Efficacy (% mortality) against brown plant hopper (Nilaparvata lugens), 100 ppm AI with Moddus, ratio AI:PGR 7.5:1, 7 d after application): 100%; mortality at 100 ppm ([1]; read-out: Efficacy (% mortality) against brown plant hopper (Nilaparvata lugens), 100 ppm AI, no PGR, 7 d after application): 100%; mortality at 200 ppm ([1]; read-out: Efficacy (% mortality) against brown plant hopper (Nilaparvata lugens), 200 ppm AI with Moddus, ratio AI:PGR 15:1, 7 d after application): 100%; mortality at 200 ppm ([1]; read-out: Efficacy (% mortality) against brown plant hopper (Nilaparvata lugens), 200 ppm AI, no PGR, 7 d after application, Abbott): 100% |
| CON1CCC2(CC1)C(O)=C(c1cc(Br)c(C)cc1C)C(=O)N2C | 182 to 183 °C |  |
| CCOC(=O)OC1=C(c2c(C)cc(C)cc2C)C(=O)N(C)C12CCN(OC)CC2 [P1.2, Carbonic acid ethyl ester 8-methoxy-1-methyl-2-oxo-3-(2,4,6-trimethyl-phenyl)-1,8-diaza-spiro[4.5]dec-3-en-4-yl ester] |  | Efficacy (% mortality) against cereal aphids (Rhopalosiphum padi), 6 DAA ([2]; test compound 25 ppm + Mero 0.1% v/v, tank mix with PGR Cycocel, ratio AI:PGR 1:20, 6 DAA): 97%; Efficacy (% mortality) against cereal aphids (Rhopalosiphum padi), 17 DAA ([2]; test compound 25 ppm + Mero 0.1% v/v, tank mix with PGR Cycocel, ratio AI:PGR 1:20, 17 DAA): 93%; Efficacy (% mortality) against cereal aphids (Rhopalosiphum padi), 6 DAA ([2]; test compound 25 ppm + Mero 0.1% v/v, tank mix with PGR Moddus, ratio AI:PGR 1:10, 6 DAA): 94%; Efficacy (% mortality) against cereal aphids (Rhopalosiphum padi), 17 DAA ([2]; test compound 25 ppm + Mero 0.1% v/v, tank mix with PGR Moddus, ratio AI:PGR 1:10, 17 DAA): 90%; Efficacy (% mortality) against cereal aphids (Rhopalosiphum padi), 6 DAA ([2]; test compound 25 ppm + adjuvant Mero 0.1% v/v, no PGR, 6 days after application, Abbott): 97%; Efficacy (% mortality) against cereal aphids (Rhopalosiphum padi), 17 DAA ([2]; test compound 25 ppm + adjuvant Mero 0.1% v/v, no PGR, 17 days after application, Abbott): 70%; mortality at 12.5 ppm ([1]; 12.5 ppm AI with Moddus, ratio AI:PGR 0.9:1, 7 d after application, read-out: Efficacy (% mortality) against brown plant hopper (Nilaparvata lugens)): 5%; mortality at 12.5 ppm ([1]; 12.5 ppm AI, no PGR, 7 d after application, read-out: Efficacy (% mortality) against brown plant hopper (Nilaparvata lugens)): 65%; mortality at 25 ppm ([1]; 25 ppm AI with Moddus, ratio AI:PGR 1.9:1, 7 d after application, read-out: Efficacy (% mortality) against brown plant hopper (Nilaparvata lugens)): 10%; mortality at 25 ppm ([1]; 25 ppm AI, no PGR, 7 d after application, read-out: Efficacy (% mortality) against brown plant hopper (Nilaparvata lugens)): 37%; mortality at 50 ppm ([1]; 50 ppm AI with Moddus, ratio AI:PGR 1.25:1, 7 d after application, read-out: Efficacy (% mortality) against brown plant hopper (Nilaparvata lugens)): 33%; mortality at 50 ppm ([1]; 50 ppm AI, no PGR, 7 d after application, read-out: Efficacy (% mortality) against brown plant hopper (Nilaparvata lugens)): 62%; mortality at 100 ppm ([1]; 100 ppm AI with Moddus, ratio AI:PGR 7.5:1, 7 d after application, read-out: Efficacy (% mortality) against brown plant hopper (Nilaparvata lugens)): 77%; mortality at 100 ppm ([1]; 100 ppm AI, no PGR, 7 d after application, read-out: Efficacy (% mortality) against brown plant hopper (Nilaparvata lugens)): 80%; mortality at 200 ppm ([1]; 200 ppm AI with Moddus, ratio AI:PGR 15:1, 7 d after application, read-out: Efficacy (% mortality) against brown plant hopper (Nilaparvata lugens)): 87%; mortality at 200 ppm ([1]; 200 ppm AI, no PGR, 7 d after application, Abbott, read-out: Efficacy (% mortality) against brown plant hopper (Nilaparvata lugens)): 90% |
| COCON1C(=O)C(c2c(C)cc(Cl)cc2C)=C(O)C12CCN(OC)CC2 | 176 to 178 °C |  |
| CON1CCC2(CC1)C(O)=C(c1c(C)cc(Cl)cc1C)C(=O)N2OC | 88 to 92 °C |  |
| CON1CCC2(CC1)C(O)=C(c1c(C)cc(C)cc1C)C(=O)N2OCCOC1CCCCO1 (centres unmarked) | 135 to 137 °C |  |
| CON1CCC2(CC1)C(O)=C(c1c(C)cc(Cl)cc1C)C(=O)N2OC1CCCO1 (centres unmarked) | 137 to 139 °C |  |
| CCOC(=O)OC1=C(c2c(C)cc(C)cc2C)C(=O)N(CC)C12CCN(OC)CC2 | 101 to 103 °C |  |
| COCON1C(=O)C(c2cc(C)ccc2C)=C(OC)C12CCN(OC)CC2 | 91 to 93 °C |  |
